Assay results published in US5807846A, “Phosphonamide ACAT inhibitors” (Warner-Lambert Company, priority 1997, dated 1998).
Read-outs that look alike come from different tables or passages of the source.

How the values were obtained:
cholesterol = assay: APCC in vivo screen: rats on high fat, high cholesterol diet (PCC), blood cholesterol analysis; parameters: species or system male Sprague-Dawley rats
Description: In one in vivo screen designated APCC, male Sprague-Dawley rats (200 to 225 g) were randomly divided into treatment groups and dosed at 4 PM with either vehicle (CMC/Tween) or suspensions of compounds in vehicle. The normal chow diet was then replaced with a high fat, high cholesterol diet (designated PCC) containing 0.5% cholic acid. The rats consumed this diet ad libitum during the night and were sacrificed at 8 AM to obtain blood samples for cholesterol analysis using standard procedures. Statistical differences between mean cholesterol values for the same vehicle were determined using analysis of variance followed by Fisher's least significant test.

[1] = target: acyl-CoA:cholesterol acyltransferase (ACAT); assay: in vitro ACAT inhibition (LAI): radiolabeled cholesterol oleate formed from radiolabeled oleic acid in rat liver microsomes; type: biochemical; conditions: read-out: LAI (IC50, concentration of test compound required to inhibit the activity of the enzyme by 50%)
Description: The test assesses the ability of a test compound to inhibit the acylation of cholesterol by oleic acid by measuring the amount of radiolabeled cholesterol oleate formed from radiolabeled oleic acid in a tissue preparation containing rat liver microsomes.

Row | Structure (SMILES) | IC50 [1] | further results
1 | COP(=O)(NC(=O)Cc1c(C(C)C)cc(C(C)C)cc1C(C)C)Oc1c(C(C)C)cc(Cl)cc1C(C)C (stereo not drawn) [Cl iPr OCH3 O, Phosphoramidic acid, [[2,4,6-tris(1-methylethyl)phenyl]acetyl]-, 4-chloro-2,6-bis(1-methylethyl)phenyl methyl ester] | > 5000 nM | APCC (cholesterol; rat, in vivo, 10 mg/kg): -12
2 | COP(=O)(Cc1c(C(C)C)cccc1C(C)C)NC(=O)Cc1c(C(C)C)cc(C(C)C)cc1C(C)C (stereo not drawn) [H iPr OCH3 CH2, Phosphonamidic acid, P-[[2,6-bis(1-methylethyl)phenyl]methyl]-N-[[2,4,6-tris(1-methylethyl)phenyl]acetyl]-, methyl ester] | 1200 nM | –
3 | CC(C)c1cc(C(C)C)c(CC(=O)NP(=O)(Oc2c(C(C)C)cccc2C(C)C)c2ccccc2)c(C(C)C)c1 (stereo not drawn) [H iPr Ph O, Phosphonamidic acid, P-phenyl-N-[[2,4,6-tris(1-methylethyl)phenyl]acetyl]-,2,6-bis(1-methylethyl)phenyl ester] | 2500 nM | APCC (cholesterol; rat, in vivo, 10 mg/kg): -25
4 | CC(C)c1cc(C(C)C)c(CP(N)(=O)OCc2ccccc2)c(C(C)C)c1 (stereo not drawn) [Monobenzyl, 2,4,6-triisopropylbenzylphosphonamide] | – | APCC (cholesterol; dose 10 mg/kg, rats, single dose at 4 PM, PCC diet overnight, blood cholesterol at 8 AM): -4; IC50 ([1]; rat liver microsomes): 3600 nM
5 | COP(=O)(Cc1c(C(C)C)cc(C(C)C)cc1C(C)C)NC(=O)Cc1c(C(C)C)cccc1C(C)C (stereo not drawn) [iPr H OCH3 CH2, Phosphonamidic acid, N-[[2,6-bis(1-methyl-ethyl)phenyl)acetyl]-P-[[2,4,6-tris(1-methyl-ethyl)phenyl)methyl]-, methyl ester] | 290 nM | APCC (cholesterol; rat, in vivo, 3 mg/kg): -44
6 | COP(=O)(NC(=O)Cc1c(C(C)C)cc(C(C)C)cc1C(C)C)Oc1c(C(C)C)cccc1C(C)C (stereo not drawn) [iPr H OCH3 O, [(2,4,6-Triisopropyl-phenyl)-acetyl]-phosphoramidic acid 2,6-diisopropyl-phenyl ester methyl ester] | 4800 nM | APCC (cholesterol; rat, in vivo, 1 mg/kg): -18
7 | COP(=O)(Cc1c(C(C)C)cc(C(C)C)cc1C(C)C)NC(=O)Cc1c(C(C)C)cc(C(C)C)cc1C(C)C (stereo not drawn) [iPr iPr OCH3 CH2, Phosphonamidic acid, N-[[2,4,6-tris(1-methylethyl)phenyl]acetyl]-P-[[2,4,6-tris(1-methylethyl)phenyl]methyl]-, methyl ester] | 740 nM | –
